{"source": "patent US8247211B2", "about": "“Glycopeptide antibiotics” (American Cyanamid Company, priority 2001, dated 2012)", "assay_in_all_cases": "In vitro antibacterial evaluation: minimum inhibitory concentration (MIC), broth dilution method", "type_in_all_cases": "cell-based", "key": {"Escherichia coli": {"system": "Escherichia coli", "details": "18 hours at 35° C.", "description": "(§1) The minimum inhibitory concentration (MIC), the lowest concentration of the antibiotic which inhibits growth of the test organism, is determined by the broth dilution method using Muller-Hinton II […] (Baltimore Biological Laboratories) following the recommendations of the National Committee for Clinical Laboratory Standards [Methods for dilution antimicrobial susceptibility tests for bacteria that grow aerobically, approved standard M7-A2, National Committee for Clinical Laboratory Standards, Villanova, Pa].\n(§2) An inoculum level of 5×10^5 CFU/mL, and a range of antibiotic concentrations (64-0.06 μg/mL) is used. […] The test organisms include a spectrum of Gram-positive bacteria comprised of Staphylococcus sp., Streptococcus sp. and Enterococcus sp. These organisms include recent clinical isolates that are resistant to methicillin, penicillin and/or vancomycin."}, "Staphylococcus sp.": {"system": "Staphylococcus sp.", "description": "as §1, §2"}, "Streptococcus sp.": {"system": "Streptococcus sp.", "details": "18 hours at 35° C.", "description": "as §1, §2"}, "Enterococcus sp.": {"system": "Enterococcus sp.", "details": "18 hours at 35° C.", "description": "as §1, §2"}, "[1]": {"details": "broth dilution, inoculum 5×10^5 CFU/mL"}}, "data": [{"smiles": "N=C1NCC(C(O)C2NC(=O)C(Cc3ccc(OC4OC(CO)C(OC5OC6COC(Cc7ccccc7)OC6C(O)C5O)C(O)C4O)cc3)NC(=O)C(CC3CCCCC3)NC(=O)CNC(=O)C(CO)NC(=O)C(C(O)C3CNC(=N)N3C3OC(CO)C(O)C(O)C3O)NC2=O)N1", "note": "(stereo not drawn) [Example 200, Cyclo[3-cyclohexylalanyl-O-[4-O-[4,6-O-phenethylidene-hexopyranosyl]hexopyranosyl]tyrosyl-3-(2-iminoimidazolidin-4-yl)seryl-3-(3-hexopyranosyl-2-iminoimidazolidin-4-yl)serylserylglycyl]]", "values": [{"measurement": "MIC Escherichia coli (ATCC 25922)", "setting": "Escherichia coli; Escherichia coli (ATCC 25922)", "result": 32, "unit": "µg/mL"}, {"measurement": "MIC Escherichia coli (GC 4559)", "setting": "Escherichia coli; Escherichia coli (GC 4559)", "result": 32, "unit": "µg/mL"}, {"measurement": "MIC Escherichia coli (GC 4560)", "setting": "Escherichia coli; Escherichia coli (GC 4560)", "result": 1, "unit": "µg/mL"}, {"measurement": "MIC Staphylococcus aureus (ATCC 29213)", "setting": "Staphylococcus sp.; strain ATCC 29213", "result": 1, "unit": "µg/mL"}, {"measurement": "MIC Staphylococcus aureus (GC 1131)", "setting": "Staphylococcus sp.; strain GC 1131", "result": 2, "unit": "µg/mL"}, {"measurement": "MIC Staphylococcus aureus (GC 3051)", "setting": "Staphylococcus sp.; strain GC 3051", "result": 1, "unit": "µg/mL"}, {"measurement": "MIC Staphylococcus aureus (GC 3053)", "setting": "Staphylococcus sp.; strain GC 3053", "result": 2, "unit": "µg/mL"}, {"measurement": "MIC Staphylococcus aureus (GC 4541)", "setting": "Staphylococcus sp.; strain GC 4541", "result": 1, "unit": "µg/mL"}, {"measurement": "MIC Staphylococcus aureus (GC 4542)", "setting": "Staphylococcus sp.; strain GC 4542", "result": 1, "unit": "µg/mL"}, {"measurement": "MIC Staphylococcus aureus-SMITH (GC 4543)", "setting": "Staphylococcus sp.; strain GC 4543", "result": 1, "unit": "µg/mL"}, {"measurement": "MIC Staphylococcus aureus (GC 4544)", "setting": "Staphylococcus sp.; strain GC 4544", "result": 2, "unit": "µg/mL"}, {"measurement": "MIC Staphylococcus aureus (GC 4545)", "setting": "Staphylococcus sp.; strain GC 4545", "result": 1, "unit": "µg/mL"}, {"measurement": "MIC Staphylococcus haemolyticus (GC 4546)", "setting": "Staphylococcus sp.; strain GC 4546", "result": 1, "unit": "µg/mL"}, {"measurement": "MIC Coagulase Negative Staphylococcus (GC 4547)", "setting": "Staphylococcus sp.; strain GC 4547", "result": 2, "unit": "µg/mL"}, {"measurement": "MIC Coagulase Negative Staphylococcus (GC 4548)", "setting": "Staphylococcus sp.; strain GC 4548", "result": 1, "unit": "µg/mL"}, {"measurement": "MIC Coagulase Negative Staphylococcus (GC 4549)", "setting": "Staphylococcus sp.; strain GC 4549", "result": 1, "unit": "µg/mL"}, {"measurement": "MIC Coagulase Negative Staphylococcus (GC 4551)", "setting": "Staphylococcus sp.; strain GC 4551", "result": 2, "unit": "µg/mL"}, {"measurement": "MIC Streptococcus agalactiae (GC 4564)", "setting": "Streptococcus sp.; Streptococcus agalactiae (GC 4564)", "result": 0.12, "unit": "µg/mL"}, {"measurement": "MIC Streptococcus pneumoniae (ATCC 6301)", "setting": "Streptococcus sp.; Streptococcus pneumoniae (ATCC 6301)", "result": "<0.06", "unit": "µg/mL"}, {"measurement": "MIC Streptococcus pneumoniae (GC 1894)", "setting": "Streptococcus sp.; Streptococcus pneumoniae (GC 1894)", "result": "<0.06", "unit": "µg/mL"}, {"measurement": "MIC Streptococcus pneumoniae (GC 4565)", "setting": "Streptococcus sp.; Streptococcus pneumoniae (GC 4565)", "result": "<0.06", "unit": "µg/mL"}, {"measurement": "MIC Streptococcus pyogenes (GC 4563)", "setting": "Streptococcus sp.; Streptococcus pyogenes (GC 4563)", "result": "<0.06", "unit": "µg/mL"}, {"measurement": "MIC Streptococcus agalactiae (GC 4564)", "setting": "Streptococcus sp.; [1]", "result": 0.12, "unit": "µg/mL"}, {"measurement": "MIC Streptococcus pneumoniae (ATCC 6301)", "setting": "Streptococcus sp.; [1]", "result": "<0.06", "unit": "µg/mL"}, {"measurement": "MIC Streptococcus pneumoniae (GC 1894)", "setting": "Streptococcus sp.; [1]", "result": "<0.06", "unit": "µg/mL"}, {"measurement": "MIC Streptococcus pneumoniae (GC 4565)", "setting": "Streptococcus sp.; [1]", "result": "<0.06", "unit": "µg/mL"}, {"measurement": "MIC Streptococcus pyogenes (GC 4563)", "setting": "Streptococcus sp.; [1]", "result": "<0.06", "unit": "µg/mL"}, {"measurement": "MIC Enterococcus avium (GC 4558)", "setting": "Enterococcus sp.; Enterococcus avium (GC 4558)", "result": 4, "unit": "µg/mL"}, {"measurement": "MIC Enterococcus faecalis (ATCC 29212)", "setting": "Enterococcus sp.; Enterococcus faecalis (ATCC 29212)", "result": 4, "unit": "µg/mL"}, {"measurement": "MIC Enterococcus faecalis (GC 2242)", "setting": "Enterococcus sp.; Enterococcus faecalis (GC 2242)", "result": 0.5, "unit": "µg/mL"}, {"measurement": "MIC Enterococcus faecalis (GC 2691)", "setting": "Enterococcus sp.; Enterococcus faecalis (GC 2691)", "result": 4, "unit": "µg/mL"}, {"measurement": "MIC Enterococcus faecalis (GC 3059)", "setting": "Enterococcus sp.; Enterococcus faecalis (GC 3059)", "result": 2, "unit": "µg/mL"}, {"measurement": "MIC Enterococcus faecalis (GC 4552)", "setting": "Enterococcus sp.; Enterococcus faecalis (GC 4552)", "result": 2, "unit": "µg/mL"}, {"measurement": "MIC Enterococcus faecalis (GC 4553)", "setting": "Enterococcus sp.; Enterococcus faecalis (GC 4553)", "result": 4, "unit": "µg/mL"}, {"measurement": "MIC Enterococcus faecalis (GC 4554)", "setting": "Enterococcus sp.; Enterococcus faecalis (GC 4554)", "result": 4, "unit": "µg/mL"}, {"measurement": "MIC Enterococcus faecalis (GC 6189)", "setting": "Enterococcus sp.; Enterococcus faecalis (GC 6189)", "result": 2, "unit": "µg/mL"}, {"measurement": "MIC Enterococcus faecium (GC 2243)", "setting": "Enterococcus sp.; Enterococcus faecium (GC 2243)", "result": 4, "unit": "µg/mL"}, {"measurement": "MIC Enterococcus faecium (GC 4556)", "setting": "Enterococcus sp.; Enterococcus faecium (GC 4556)", "result": 4, "unit": "µg/mL"}, {"measurement": "MIC Enterococcus faecium (GC 4557)", "setting": "Enterococcus sp.; Enterococcus faecium (GC 4557)", "result": 2, "unit": "µg/mL"}, {"measurement": "MIC Enterococcus avium (GC 4558)", "setting": "Enterococcus sp.; [1]", "result": 4, "unit": "µg/mL"}, {"measurement": "MIC Enterococcus faecalis (ATCC 29212)", "setting": "Enterococcus sp.; [1]", "result": 4, "unit": "µg/mL"}, {"measurement": "MIC Enterococcus faecalis (GC 2242)", "setting": "Enterococcus sp.; [1]", "result": 0.5, "unit": "µg/mL"}, {"measurement": "MIC Enterococcus faecalis (GC 2691)", "setting": "Enterococcus sp.; [1]", "result": 4, "unit": "µg/mL"}, {"measurement": "MIC Enterococcus faecalis (GC 3059)", "setting": "Enterococcus sp.; [1]", "result": 2, "unit": "µg/mL"}, {"measurement": "MIC Enterococcus faecalis (GC 4552)", "setting": "Enterococcus sp.; [1]", "result": 2, "unit": "µg/mL"}, {"measurement": "MIC Enterococcus faecalis (GC 4553)", "setting": "Enterococcus sp.; [1]", "result": 4, "unit": "µg/mL"}, {"measurement": "MIC Enterococcus faecalis (GC 4554)", "setting": "Enterococcus sp.; [1]", "result": 4, "unit": "µg/mL"}, {"measurement": "MIC Enterococcus faecalis (GC 6189)", "setting": "Enterococcus sp.; [1]", "result": 2, "unit": "µg/mL"}, {"measurement": "MIC Enterococcus faecium (GC 2243)", "setting": "Enterococcus sp.; [1]", "result": 4, "unit": "µg/mL"}, {"measurement": "MIC Enterococcus faecium (GC 4556)", "setting": "Enterococcus sp.; [1]", "result": 4, "unit": "µg/mL"}, {"measurement": "MIC Enterococcus faecium (GC 4557)", "setting": "Enterococcus sp.; [1]", "result": 2, "unit": "µg/mL"}]}]}
